According to PMC3672506, “A useful EGFR-TK ligand for tumor diagnosis with SPECT: development of radioiodinated 6-(3-morpholinopropoxy)-7-ethoxy-4-(3′-iodophenoxy)quinazoline” (Annals of Nuclear Medicine, 2013):
Like-named read-outs stand apart in the source and are kept apart here.

Assays:
[1] = test system: A431 tumor; format: in vivo, balb/c nude mice; settings: for Blood radioactivity / Brain radioactivity / Heart radioactivity / Kidney radioactivity / Liver radioactivity / Lung radioactivity / Muscle radioactivity / Pancreas radioactivity / Spleen radioactivity / Stomach radioactivity / Tumor radioactivity: A-431 tumor-bearing mice, i.v.
Protocol: The animals were euthanized 1, 6, 12 or 24 h after injection of the radioligands (37 kBq, 74 TBq/mmol in 0.1 mL saline), and the distributions were studied as described above.
In particular, the radioactivity accumulated in the liver 24 h after injection was approximately 1/50 of the radioactivity 1 h after injection. Thus, tumor-to-organ ratios for [^125I]PYK 24 h after injection had desirable values (Fig. 3b: tumor to lung: 8.5, tumor to kidney: 4.3, tumor to liver: 3.0) for tumor diagnostic imaging.

[2] = test system: A431 tumor; test: Tumor uptake of radioiodinated ligands in A431 tumor-bearing mice; format: in vivo, balb/c nude mice; settings: for accumulation in tumors: i.v.
Protocol: A suspension of 1 × 10^7 A431 cells in 0.1 mL of medium was inoculated subcutaneously in male balb/c nude mice (4 weeks old, 20–25 g, n = 3). After approximately 2 weeks, when the solid tumor had grown to optimal size, the mice were used for tumor uptake studies. [^125I]6a–d (37 kBq, 74 TBq/mmol) in 0.1 mL of saline was injected intravenously into tumor-bearing mice via the lateral tail vein. At 1 or 24 h after administration, the animals were sacrificed. Samples of tumor were excised and weighed. Radioactivity was measured using a well-type NaI(Tl) scintillation gamma counter. The results were expressed in terms of percentage of injected dose per gram of tumor.

[3] = A431 tumor-bearing mice, 24 h after injection

## CCOc1cc2ncnc(Oc3cccc([125I])c3)c2cc1OCCCN1CCOCC1 [[^125I]PYK]
[1]; A431 tumor-bearing mice
  liver radioactivity 24 h after injection relative to 1 h after injection: approximately 1/50
[1]; [3]
  tumor to kidney ratio: 4.3
  tumor to liver ratio: 3.0
  tumor to lung ratio: 8.5
  tumor/blood ratio: 57.0
  tumor/muscle ratio: 45.5
[1]; 1 h after injection
  Blood radioactivity: 0.80 ± 0.14 % injected dose per gram
  Brain radioactivity: 0.88 ± 0.07 % injected dose per gram
  Heart radioactivity: 1.19 ± 0.17 % injected dose per gram
  Kidney radioactivity: 7.40 ± 0.66 % injected dose per gram
  Liver radioactivity: 27.0 ± 1.29 % injected dose per gram
  Lung radioactivity: 4.14 ± 0.48 % injected dose per gram
  Muscle radioactivity: 1.34 ± 0.21 % injected dose per gram
  Pancreas radioactivity: 2.80 ± 0.19 % injected dose per gram
  Spleen radioactivity: 2.14 ± 0.04 % injected dose per gram
  Stomach radioactivity: 6.10 ± 2.08 % injected dose per gram
  Tumor radioactivity: 4.37 ± 0.65 % injected dose per gram
[1]; 6 h after injection
  Blood radioactivity: 0.20 ± 0.04 % injected dose per gram
  Brain radioactivity: 0.17 ± 0.03 % injected dose per gram
  Heart radioactivity: 0.50 ± 0.04 % injected dose per gram
  Kidney radioactivity: 3.53 ± 0.72 % injected dose per gram
  Liver radioactivity: 7.89 ± 1.45 % injected dose per gram
  Lung radioactivity: 2.29 ± 0.69 % injected dose per gram
  Muscle radioactivity: 0.39 ± 0.02 % injected dose per gram
  Pancreas radioactivity: 1.59 ± 0.25 % injected dose per gram
  Spleen radioactivity: 1.02 ± 0.18 % injected dose per gram
  Stomach radioactivity: 1.23 ± 0.60 % injected dose per gram
  Tumor radioactivity: 3.59 ± 0.73 % injected dose per gram
[1]; 12 h after injection
  Blood radioactivity: 0.06 ± 0.01 % injected dose per gram
  Brain radioactivity: 0.04 ± 0.01 % injected dose per gram
  Heart radioactivity: 0.14 ± 0.02 % injected dose per gram
  Kidney radioactivity: 1.06 ± 0.14 % injected dose per gram
  Liver radioactivity: 1.55 ± 0.32 % injected dose per gram
  Lung radioactivity: 0.61 ± 0.18 % injected dose per gram
  Muscle radioactivity: 0.09 ± 0.02 % injected dose per gram
  Pancreas radioactivity: 0.41 ± 0.06 % injected dose per gram
  Spleen radioactivity: 0.21 ± 0.01 % injected dose per gram
  Stomach radioactivity: 0.69 ± 0.51 % injected dose per gram
  Tumor radioactivity: 1.72 ± 0.42 % injected dose per gram
[1]; 24 h after injection
  Blood radioactivity: 0.03 ± 0.00 % injected dose per gram
  Brain radioactivity: 0.02 ± 0.00 % injected dose per gram
  Heart radioactivity: 0.05 ± 0.01 % injected dose per gram
  Kidney radioactivity: 0.36 ± 0.04 % injected dose per gram
  Liver radioactivity: 0.51 ± 0.35 % injected dose per gram
  Lung radioactivity: 0.18 ± 0.07 % injected dose per gram
  Muscle radioactivity: 0.03 ± 0.01 % injected dose per gram
  Pancreas radioactivity: 0.14 ± 0.02 % injected dose per gram
  Spleen radioactivity: 0.07 ± 0.03 % injected dose per gram
  Stomach radioactivity: 0.38 ± 0.19 % injected dose per gram
  Tumor radioactivity: 1.53 ± 0.15 % injected dose per gram
[2]; 1 h post injection
  tumor accumulation relative to [125I]PHY: approximately 8 folds
[2]; [3]
  retention in tumors (in words): good retention
  accumulation in tumors: 1.53 ± 0.15 % ID/g tissue
[2]; A431 tumor-bearing mice, 1 h post injection
  accumulation in tumors: 4.37 ± 0.65 % ID/g tissue
